Where a name gives a salt, the structure may show the parent alone.
Key:
[1] = system: KBM7-STI^R cells (STI-571-resistant KBM7); experiment: in vitro growth inhibition (MTS) assay, KBM7-STI^R; assay type: cell-based, human; details: 3 day MTS assay, 72 h exposure, read-out: IC50 (drug concentration which causes 50% growth inhibition)
Description: (§1) β-L Oddc was evaluated using an in vitro growth inhibition (MTS) assay. The description of the cell lines used and the details of the MTS assay are described below.
(§2) Cell lines: Two human CML, Ph+, p210 Bcr-Abl expressing cell lines were used, namely, KBM-5 and KBM-7. KBM-5 was derived from a patient in the blastic phase of CML and was evaluated to be absent of normal c-ABL. KBM-7 was identified previously to be a human near-haploid cell line. These two cell lines were further described in the references below, now incorporated by reference:
(§3) Growth inhibition (MTS) assay: The in vitro growth inhibition effect of β-L Oddc on leukemic cells was determined by measuring MTS (CellTiter 96®Aqueous One Solution Reagent, Promega Corporation, WI) dye absorbance by living cells. Briefly, cells were seeded in triplicate in 96-well microtiter plates (Falcon, USA) at a concentration of 4×10^5 cells /ml. After exposure to the β-L Oddc for 72 h, 20 μl of MTS solution were added to each well, the plates were incubated for additional 4 h at 37° C., and absorbance at 490 nm was measured.

[2] = system: chronic myeloid leukemia in blastic phase (CML-BP); experiment: preliminary multicenter study in patients with CML-BP; assay type: in vivo, human; details: 8mg/m^2/day daily for 5 days, twenty one patients evaluable, 40 cycles, data not verified
Description: A preliminary study was conducted to investigate the activity of β-L Oddc in patients with chronic myeloid leukemia in blastic phase (CML-BP). The multicenter study was conducted using β-L Oddc 8mg/m^2/day daily for 5 days for patients with CML-BP who had received no prior chemotherapy for CML-BP. Patients who had received Gleevec therapy as sole prior therapy for CML-BP were also eligible. Twenty-six patients, 17 male, 26 performance score less than or equal to 2, median age 54 years (range 31-84) had been entered in the study to date. 13 (50%) patients received β-L Oddc as first therapy for CML-BP, 13 (50%) had failed prior Gleevec therapy for CML-BP. Response definitions are as follows: Complete hematologic response (CHR) requires normalization of peripheral counts and differentials with less than or equal to 5% marrow blasts for at least 4 weeks. Hematologic improvement (HI) is as with CHR but with persistence of thrombocytopenia less than 100×10^9/L and few immature peripheral cells. A partial hematologic response (PHR) is as per CHR, but allows persistence of, though less than or equal to 50% reduction of, palpable splenomegaly and thrombocytosis (platelets>450×10^9/L) or the presence of few immature peripheral cells. […]

KBM-7 cells = experiment: in vitro growth inhibition (MTS) assay, KBM-7; assay type: cell-based, human; details: 3 day MTS assay, 72 h exposure, read-out: IC50 (drug concentration which causes 50% growth inhibition)
Description: as §1, §2
(§4) The cells were cultured in Iscove's modified Dulbecco's medium supplemented with 10% fetal calf serum (Invitrogen Corp., Carlsbad, Calif.) at 37° C. in atmosphere of 5% CO2 in air.
as §3

[3] = system: KBM5-STI^R cells (STI-571-resistant KBM5); experiment: in vitro growth inhibition (MTS) assay, KBM5-STI^R; assay type: cell-based, human; details: 3 day MTS assay, 72 h exposure, read-out: IC50 (drug concentration which causes 50% growth inhibition)
KBM-5 cells = experiment: in vitro growth inhibition (MTS) assay, KBM-5; assay type: cell-based, human; details: 3 day MTS assay, 72 h exposure, read-out: IC50 (drug concentration which causes 50% growth inhibition)
Description: as §1, §2, §4, §3

KBM5 cells = experiment: response of KBM5 cells to STI-571 exposure; assay type: cell-based, human
Description: as §4

KBM7 cells = experiment: response of KBM7 cells to STI-571 exposure; assay type: cell-based, human
Description: as §4

Nc1ccn([C@@H]2CO[C@H](CO)O2)c(=O)n1 [β-L Oddc, (−)-β-L-Dioxolane-Cytidine]
IC50 [1]: 500 to 1000 nM
patients in whom some responses were observed [2]: 4 patients
IC50 (KBM-7 cells): 500 to 1000 nM
IC50 [3]: 500 to 1000 nM
IC50 (KBM-5 cells): 500 to 1000 nM

Cc1ccc(NC(=O)c2ccc(CN3CCN(C)CC3)cc2)cc1Nc1nccc(-c2cccnc2)n1 [STI-571, imatinib mesylate]
response to STI-571 exposure (KBM5 cells): G0/G1 cell cycle arrest
response to STI-571 exposure (KBM7 cells): apoptosis
